We go through three molecules from patent US20140271517A1, “DEODORANT FORMULATION” (priority 2013, published 2014).

Some results are limits rather than exact numbers.

The conditions of series [1]: reported pH of the agent; cited from earlier work.
The conditions of series [2]: broad cross section of people; '16-20 hour protection and more'; previously presented in U.S. Pat. No. 5,512,274; cited from earlier work.
Series [3] relates to microorganisms responsible for the odour in perspiration. In words: destruction of odour-causing microorganisms. As to conditions: disinfectant agent in the MgO/ZnO deodorant formulation, 0.5% to 1% by weight. From the text:
It is believed that the previously recognized synergy between the zinc and magnesium compounds has been further augmented with the disinfection capacity of a potassium and/or […]. Turning to the specific formulations, in a first embodiment, the deodorant formulation includes magnesium oxide in an amount of between 1% and 2.5% by weight and zinc oxide in an amount of between 0.5% and 1.5% by weight. In order to further augment the efficacy of the formulation, a disinfectant agent is included. As an example, potassium sulfate in an amount of between 0.5% and 1% by weight. Propylene glycol in an amount between 45% and 57% by weight is included. Other polyols may be substituted such as glycenol, etc. Sodium stearate is also present in am amount between 4% and 8% by weight. Glycerin is also present in an amount from between 6% and 10% by weight. The balance of the formulation is obviously water. […] The provision for the suspension is very convenient, since the active ingredients are all present and this suspension can used as a precursor in the formulation of other deodorizing products.

In the case of `[Ca+2].[OH-].[OH-]` [Lime, calcium hydroxide], the pH in series [1] is at least 12.5. `[Mg+2].[OH-].[OH-]` [magnesium hydroxide]: in series [2], the “duration of deodorant protection” value was 16 to 20 h. For the same molecule, the pH in series [1] is given as around 10.0.

As for `O=S(=O)([O-])[O-].[K+].[K+]` [potassium sulfate], the “efficacy in destroying the microorganisms responsible for the odour in perspiration” value in series [3] was “particularly effective”.
